The source of these data is ChEMBL document CHEMBL4715723, “Discovery and development of benzo-[1,2,4]-triazolo-[1,4]-oxazepine GPR142 agonists for the treatment of diabetes” (Bioorg Med Chem Lett, 2016).

One data set concerns the target Cytochrome P450 3A4 (Homo sapiens, UniProt P08684). As to the kind of experiment: Inhibition of human liver microsomes CYP3A4 using testosterone as substrate by MUX-MS/MS analysis. The class given is ADME, Microsome. In general terms: Liver microsomes are a subcellular fraction often used to study metabolism.
Another data set concerns the target Cytochrome P450 2C9 (Homo sapiens, UniProt P11712). The data set can be described thus: Inhibition of human liver microsomes CYP2C9 using diclofenac as substrate by MUX-MS/MS analysis. The class given is ADME, Microsome.
Data set [1] is described as follows: Protein binding in rat plasma assessed as unbound fraction. The class given is ADME, cell-free.
Data set [2] can be described thus: Clearance in rat at 2 mg/kg, po or 1 mg/kg, iv. It is filed as ADME, organism-based. The note with it: in vivo.
For a further data set, the target named is Cytochrome P450 2D6 (Homo sapiens, UniProt P10635). As to the kind of experiment: Inhibition of human liver microsomes CYP2D6 using dextromethorphan as substrate by MUX-MS/MS analysis. It is filed as ADME, Microsome.
Chain of Cytochrome P450 2D6 (P10635 whole entry): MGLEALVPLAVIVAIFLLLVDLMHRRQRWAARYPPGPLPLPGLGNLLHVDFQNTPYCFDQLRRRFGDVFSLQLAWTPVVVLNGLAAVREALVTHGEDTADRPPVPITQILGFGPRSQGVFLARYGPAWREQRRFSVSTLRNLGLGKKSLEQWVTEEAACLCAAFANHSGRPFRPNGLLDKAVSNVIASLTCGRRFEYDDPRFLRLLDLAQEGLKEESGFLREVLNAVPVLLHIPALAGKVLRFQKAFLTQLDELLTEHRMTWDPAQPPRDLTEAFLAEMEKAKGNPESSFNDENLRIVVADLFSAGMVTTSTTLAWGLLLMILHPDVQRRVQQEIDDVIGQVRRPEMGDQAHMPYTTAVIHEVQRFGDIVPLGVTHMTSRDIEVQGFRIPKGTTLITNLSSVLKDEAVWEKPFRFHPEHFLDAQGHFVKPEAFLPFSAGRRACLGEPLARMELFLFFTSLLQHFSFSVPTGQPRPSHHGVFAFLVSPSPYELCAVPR
In data set [3] the target is Voltage-gated inwardly rectifying potassium channel KCNH2 (Homo sapiens, UniProt Q12809). The data set can be described thus: Inhibition of human ERG expressed in HEK293 cells assessed as reduction in S35-MK-0499 binding. It is filed as cell-based.
Chain of Voltage-gated inwardly rectifying potassium channel KCNH2 (Q12809 whole entry): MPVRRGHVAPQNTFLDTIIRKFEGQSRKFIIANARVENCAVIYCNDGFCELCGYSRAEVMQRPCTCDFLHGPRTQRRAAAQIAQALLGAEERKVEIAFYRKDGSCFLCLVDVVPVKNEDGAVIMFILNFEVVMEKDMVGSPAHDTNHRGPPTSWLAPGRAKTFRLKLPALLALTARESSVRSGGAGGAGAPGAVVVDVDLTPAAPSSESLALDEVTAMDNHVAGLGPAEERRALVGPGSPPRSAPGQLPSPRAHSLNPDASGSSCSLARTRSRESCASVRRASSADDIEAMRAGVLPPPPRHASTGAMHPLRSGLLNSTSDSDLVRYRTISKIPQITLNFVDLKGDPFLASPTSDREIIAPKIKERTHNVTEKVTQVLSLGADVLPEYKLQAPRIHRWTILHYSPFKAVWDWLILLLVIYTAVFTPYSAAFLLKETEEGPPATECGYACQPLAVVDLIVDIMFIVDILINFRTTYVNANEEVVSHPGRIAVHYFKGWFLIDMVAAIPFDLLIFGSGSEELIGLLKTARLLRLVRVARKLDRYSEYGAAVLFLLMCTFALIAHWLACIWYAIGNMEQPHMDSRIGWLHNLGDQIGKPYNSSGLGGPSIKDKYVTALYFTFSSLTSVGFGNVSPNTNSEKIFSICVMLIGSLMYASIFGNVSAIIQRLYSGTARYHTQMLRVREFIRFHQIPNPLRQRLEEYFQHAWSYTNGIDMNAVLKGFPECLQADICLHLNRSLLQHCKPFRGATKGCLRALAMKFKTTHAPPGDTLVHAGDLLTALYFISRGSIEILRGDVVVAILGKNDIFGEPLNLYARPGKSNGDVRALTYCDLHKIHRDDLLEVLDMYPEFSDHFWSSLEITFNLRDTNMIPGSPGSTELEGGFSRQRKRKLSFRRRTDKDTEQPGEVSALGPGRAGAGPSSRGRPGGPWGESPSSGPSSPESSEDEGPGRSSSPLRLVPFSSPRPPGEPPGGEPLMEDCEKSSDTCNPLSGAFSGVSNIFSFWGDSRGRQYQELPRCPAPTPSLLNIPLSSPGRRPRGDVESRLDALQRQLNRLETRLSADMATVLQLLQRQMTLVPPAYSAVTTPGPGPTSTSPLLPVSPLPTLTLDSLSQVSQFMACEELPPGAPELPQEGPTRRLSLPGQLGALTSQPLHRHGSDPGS
A short description of data set [4]: Volume of distribution at steady state in rat at 2 mg/kg, po or 1 mg/kg, iv. The class given is ADME, organism-based. Conditions: in vivo, read-out: Vdss.
Data set [5] is described as follows: Half life in rat at 2 mg/kg, po or 1 mg/kg, iv. The class given is ADME, organism-based. Conditions: in vivo.
Data set [6] can be described thus: Oral bioavailability in rat at 2 mg/kg. It is filed as ADME, organism-based. The note with it: in vivo.
Data set [7] addresses T1, Probable G-protein coupled receptor 142 (Homo sapiens, UniProt Q7Z601).
T1 sequence (Q7Z601 whole entry): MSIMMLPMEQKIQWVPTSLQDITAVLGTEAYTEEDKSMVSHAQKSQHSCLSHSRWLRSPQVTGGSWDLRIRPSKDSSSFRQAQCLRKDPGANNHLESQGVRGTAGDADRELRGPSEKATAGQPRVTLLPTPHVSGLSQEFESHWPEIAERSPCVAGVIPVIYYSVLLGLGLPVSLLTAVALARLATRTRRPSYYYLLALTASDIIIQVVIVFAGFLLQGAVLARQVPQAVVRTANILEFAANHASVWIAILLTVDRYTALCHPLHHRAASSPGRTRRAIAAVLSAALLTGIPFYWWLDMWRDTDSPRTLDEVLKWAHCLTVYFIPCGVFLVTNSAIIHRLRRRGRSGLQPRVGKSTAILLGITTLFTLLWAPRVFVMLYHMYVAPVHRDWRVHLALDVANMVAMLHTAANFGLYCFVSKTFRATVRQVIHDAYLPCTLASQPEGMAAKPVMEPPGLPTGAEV
As to the kind of experiment: Agonist activity at human GPR142 expressed in CHO cells measured for 3 mins by Fluo-4M dye based FLIPR assay. The class given is cell-based. Conditions: read-out: IC50 (the source's name).

The subject of data set [8] is Mus musculus. As to the kind of experiment: Antidiabetic activity in […] mouse assessed as reduction in dextrose-induced blood glucose peak administered po before dextrose stimulation and measured upto 120 mins after dextrose administration by OGTT assay. It is filed as functional, organism-based. The note with it: time min <=120.
The subject of data set [9] is Mus musculus. As to the kind of experiment: Antidiabetic activity in […] mouse harboring GPR142 deficient assessed as reduction in dextrose-induced blood glucose peak at 30 mg/kg, po administered before dextrose stimulation and measured upto 120 mins after dextrose administration by OGTT assay. It is filed as functional, organism-based. The note with it: time min <=120.

For data set [10], the target named is T2, Probable G-protein coupled receptor 142 (Mus musculus, UniProt Q7TQN9).
T2 sequence (Q7TQN9 whole entry): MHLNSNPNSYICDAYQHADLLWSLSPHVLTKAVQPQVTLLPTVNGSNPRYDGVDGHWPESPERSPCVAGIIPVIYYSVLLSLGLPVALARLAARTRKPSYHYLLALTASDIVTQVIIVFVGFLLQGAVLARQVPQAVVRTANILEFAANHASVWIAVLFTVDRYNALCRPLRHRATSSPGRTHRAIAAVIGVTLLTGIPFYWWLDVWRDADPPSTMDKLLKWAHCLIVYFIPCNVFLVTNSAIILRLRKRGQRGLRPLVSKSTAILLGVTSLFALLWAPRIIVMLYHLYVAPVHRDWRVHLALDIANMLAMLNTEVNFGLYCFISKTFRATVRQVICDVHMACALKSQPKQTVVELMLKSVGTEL
The data set can be described thus: Agonist activity at mouse GPR142 expressed in CHO cells measured for 3 mins by Fluo-4M dye based FLIPR assay. The class given is cell-based. Conditions: read-out: IC50 (the source's name).

Structures are written as SMILES. Calls of active or inactive are those of the source. No cut-off for these calls is given here.

Chain of Cytochrome P450 2C9 (P11712 whole entry): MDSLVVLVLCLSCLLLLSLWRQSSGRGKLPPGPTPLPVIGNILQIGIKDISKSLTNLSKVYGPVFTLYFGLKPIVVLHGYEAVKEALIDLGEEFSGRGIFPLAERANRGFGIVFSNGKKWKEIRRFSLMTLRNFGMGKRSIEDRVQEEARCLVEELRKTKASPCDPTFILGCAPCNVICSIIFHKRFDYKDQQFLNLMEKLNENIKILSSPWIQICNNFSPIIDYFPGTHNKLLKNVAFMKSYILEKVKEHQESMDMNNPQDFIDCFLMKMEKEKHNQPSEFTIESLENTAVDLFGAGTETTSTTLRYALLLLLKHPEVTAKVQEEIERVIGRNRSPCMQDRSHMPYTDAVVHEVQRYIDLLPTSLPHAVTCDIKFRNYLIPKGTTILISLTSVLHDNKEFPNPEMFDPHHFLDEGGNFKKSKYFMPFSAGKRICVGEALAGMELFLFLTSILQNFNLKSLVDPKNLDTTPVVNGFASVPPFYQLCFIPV
Chain of Cytochrome P450 3A4 (P08684 whole entry): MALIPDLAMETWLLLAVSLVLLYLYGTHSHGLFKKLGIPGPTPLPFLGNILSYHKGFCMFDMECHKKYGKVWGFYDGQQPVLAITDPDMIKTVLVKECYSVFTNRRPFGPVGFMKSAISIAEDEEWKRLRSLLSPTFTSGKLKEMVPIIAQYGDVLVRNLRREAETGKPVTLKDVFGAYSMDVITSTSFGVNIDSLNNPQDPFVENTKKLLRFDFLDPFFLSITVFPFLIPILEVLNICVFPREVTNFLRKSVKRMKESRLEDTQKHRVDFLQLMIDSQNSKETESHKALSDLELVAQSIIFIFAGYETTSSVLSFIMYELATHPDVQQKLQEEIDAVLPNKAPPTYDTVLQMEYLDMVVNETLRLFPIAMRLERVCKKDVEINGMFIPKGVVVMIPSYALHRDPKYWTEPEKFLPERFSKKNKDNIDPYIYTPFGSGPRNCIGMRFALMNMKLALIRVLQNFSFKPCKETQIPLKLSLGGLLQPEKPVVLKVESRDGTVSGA

As for `CCc1cc(-c2ccc3c(c2)-c2nnc(Nc4cccc(C(F)(F)F)c4)n2CCO3)ccn1`, the half-maximal inhibitory concentration (IC50) at Cytochrome P450 3A4 is over 50 µM; against Cytochrome P450 2C9 it was 3.54 µM; against Cytochrome P450 2D6, 2.34 µM; in [3], 0.334 µM. Also, in [1], the fraction unbound was determined as 0.0034. This molecule yielded a clearance in [2] of 14 mL/min/kg. Further, the Vd in data set [4] worked out at 2.6 L/kg. The half-life in data set [5] is 1.4 h. In [6], this molecule showed a bioavailability of 97%. In addition, the EC50 in data set [7] was determined as 0.074 µM.
Consider `FC(F)(F)Oc1cccc(Nc2nnc3n2CCOc2ccc(-c4ccncc4)cc2-3)c1`, for which the Activity result in the data set on Mus musculus [8] was “Dose-dependent effect”. Further, the IC50 against Cytochrome P450 3A4 came to 1.61 µM; on Cytochrome P450 2C9, 0.934 µM; at Cytochrome P450 2D6 it was 0.802 µM; in [3] it was 0.605 µM. For the same molecule, in the data set with Mus musculus [9], the outcome was inactive. Also, the fraction unbound in [1] was determined as 0.0041. In [2], this molecule displayed a clearance of 23.9 mL/min/kg. In addition, the Vd in [4] is 2.2 L/kg. In data set [5], this molecule had a half-life of 1 h. For the same molecule, the bioavailability in data set [6] turned out to be 40%. Also, the EC50 in [7] amounted to 0.063 µM.
For the molecule `O=C(Nc1ccc(Cl)c(Cl)c1)N1CCOc2ccc(-c3ccncc3)cc2C1`, the EC50 came out at 0.138 µM in data set [10] and 0.14 µM in [7]. Also, the fraction unbound in data set [1] was 0.0015. This molecule also displayed a clearance in data set [2] of 88.6 mL/min/kg. The figures for the IC50 (on Cytochrome P450 2D6; in data set [3] (hek293)) were 76 µM and 2.03 µM, respectively. The Vd in [4] stood at 3.4 L/kg. Moreover, the half-life in data set [5] was 0.71 h. In addition, in data set [6], the bioavailability is 6%.
As to `Cc1cc(-c2ccc3c(c2)-c2nnc(Oc4cccc(Cl)c4F)n2CCO3)ccn1`, the Activity entry in the data set on Mus musculus [8] is “Dose-dependent effect”. Besides, the IC50 against Cytochrome P450 3A4 is 8.39 µM; against Cytochrome P450 2C9 it was 5.26 µM; on Cytochrome P450 2D6, 12.1 µM; in [3], 2.41 µM. Further, the fraction unbound in data set [1] turned out to be 0.0111. The molecule also came in with a clearance in [2] of 8.9 mL/min/kg. Moreover, the Vd in data set [4] came out at 1.6 L/kg. Besides, in data set [5], the half-life was 2 h. Also, the bioavailability in data set [6] was found to be 67%. In addition, in [7], the EC50 is 0.056 µM.

The IC50 is the concentration needed to halve the response being measured. By fraction unbound is commonly meant the share of the substance not bound to proteins or other matrix. Usually half-life stands for how long it takes for the measured level to halve. Higher therefore signals slow loss. One may read the bioavailability as the share of a dose that reaches the circulation, judged against a reference dose that is usually intravenous. High values mean much systemic uptake, low ones little systemic uptake.
